We go through four molecules from US9682049B2, “Non-racemic mixtures of various ratios of D- and L-methadone and methods of treating pain using the same” (priority 2015, dated 2017).

Data set [1] relates to painful diabetic neuropathy. Description: Changes in VAS scores (SF-MPQ), double-blind randomized crossover study vs placebo. Type of data set: in vivo, human. Here is the method:
(§1) Potential patients were recruited by advertising and screened via interview, review of health history and medications, physical examination, lab work, and ECG.
(§2) The average daily pain score and the worst daily pain scores were measured. Patients recorded their pain score four times daily on a scale of 0 to 10. Additionally, pain scores were measured using a Visual Analog Scale (VAS) during weekly visits to the study center.
VAS is a measurement instrument that measures a characteristic or attitude that is believed to range across a continuum of values. For example, the amount of pain that a patient feels may range across a continuum from no pain to an extreme amount of pain. […] In order to capture this underlying continuum, VAS was devised, and in the present study, VAS was used as described here. (See e.g., D. Gould et al., J. Clin. Nursing, 10: 697-706 (2001)).
VAS was conducted by using a horizontal line, 100 mm in length, anchored by word descriptors at each end, as illustrated below. Patients marked on a line (as shown below) the point that best represented their perception of pain.
A VAS score was determined by measuring in millimeters from the left hand end of the line to the point that the patient marked.

The subject of data set [2] is painful diabetic neuropathy. Description: Changes in average daily pain scores, double-blind randomized crossover study vs placebo. Type of data set: in vivo, human. On the procedure:
as §1, §2

Data set [3] concerns patients with painful diabetic neuropathy. Nature of the data set: Patient withdrawal because of side effects in the 3:1 D:L-methadone study. The settings on record: terminated the study because of side effects (mostly nausea and vomiting). Here is the method: Patients were subjected to forceful weekly titration of doses from 15 mg the first week, to 30 mg the second week, and to 40 mg the third and fourth weeks.

A short description of data set [4]: Solubility of 75/25 D/L methadone HCl drug substance. Type of data set: physicochemical. An excerpt:
General Properties of 75/25 D/L Methadone-HCl Included the Following Physical Characteristics: […]

For data set [5], the system named is neuropathic pain. The settings on record: cited from earlier work; for placebo-adjusted relief of average daily pain intensity: Morley.
The subject of data set [6] is patients with neuropathic pain. The settings on record: Morley study; cited from earlier work.
In another data set the test system is neuropathic pain model. The settings on record: intrathecal, rats; not reversed by naloxone; cited from earlier work.
In data set [7] the test system is neuropathic pain. As to conditions: Lemberg et al. 2006; cited from earlier work.
The subject of data set [8] is neuropathic pain. As to conditions: small group of patients, high dose; cited from earlier work.

Counter-ions that a name gives are not always drawn. Like-named read-outs stand apart in the source and are kept apart here.

Consider `CCC(=O)C(CC(C)N(C)C)(c1ccccc1)c1ccccc1` (racemic) [75:25 D:L-methadone, Mixture of 75% (6S)-6-(dimethylamino)-4,4-dipheylhepan-3-one hydrochloride and 25% (6R)-6-(dimethylamino)-4,4-dipheylhepan-3-one hydrochloride], for which the “Change in VAS score (SF-MPQ), median” value in data set [1] (15 mg) is on record as −7.0; in data set [1] (30 mg), −8.0; in data set [1] (40 mg (1st Week)), −13.0; in data set [1] (40 mg (2nd Week)) it was −10.0; in [1] (40 mg (Both Weeks)), −12.0; in [1] (15-30 mg (Combined), pooled), −8.0. In addition, the “Change in VAS score, difference in means vs placebo (95% CI)” value in data set [1] (15 mg) is given as −10.1 (−21.0; 0.9); in data set [1] (30 mg), −6.3 (−17.4; 4.9); in data set [1] (40 mg (1st Week)), −10.5 (−19.6; −1.4); in [1] (40 mg (2nd Week)), −8.1 (−18.3; 2.2); in data set [1] (40 mg (Both Weeks)), −9.3 (−15.8; − 2.8); in [1] (15-30 mg (Combined), pooled) it was −8.1 (−15.6; −0.6). Moreover, the “Change in VAS score (SF-MPQ), mean” value is −12.8 in data set [1] (15 mg, VAS 100 mm line, primary efficacy population); −14.9 in [1] (30 mg); −19.5 in [1] (40 mg (1st Week)); −20.7 in [1] (40 mg (2nd Week)); −20.1 in data set [1] (40 mg (Both Weeks)); −13.9 in data set [1] (15-30 mg (Combined), pooled). For the same molecule, the “placebo-adjusted relief of average daily pain intensity” value in data set [1] (lowest tested dose (15 mg) of the 3:1 mixture) was −10.1. In addition, in data set [1] (vs Morley 10 mg racemic methadone), the “placebo-adjusted relief of average daily pain intensity compared with 10 mg of racemic methadone” value is on record as 3 times better. In [1] (vs Morley 20 mg racemic methadone), the “placebo-adjusted relief of average daily pain intensity compared with 20 mg of racemic methadone” value stood at 54 % better. Further, the “Change in average daily pain score, Difference in Means vs placebo (95% CI)” value is given as −0.84 (−1.64; −0.04) in data set [2] (15 mg); −1.14 (−2.30; 0.02) in [2] (30 mg); −1.08 (−2.20; 0.03) in data set [2] (40 mg (1st Week)); −1.17 (−2.28; −0.06) in [2] (40 mg (2nd Week)); −1.13 (−1.88; −0.38) in data set [2] (40 mg (Both Weeks)); −0.99 (1.67; −0.31) in data set [2] (15-30 mg Combined). For the same molecule, the “Change in average daily pain score, Mean (SD)” value in [2] (15 mg, scale of 0 to 10, two clinical sites combined) is −0.88 (1.46); in data set [2] (30 mg), −1.41 (1.87); in data set [2] (40 mg (1st Week)), −1.57 (1.98); in [2] (40 mg (2nd Week)), −1.73 (2.01); in [2] (40 mg (Both Weeks)) it was −1.65 (1.97); in data set [2] (15-30 mg Combined) it was −1.14 (1.67). This molecule also showed a patient withdrawal rate in data set [3] of 17%. Moreover, the Solubility entry was “readily soluble” in [4] (alcohols), “practically insoluble” in data set [4] (ether), “readily soluble” in data set [4] (methylene chloride) and “readily soluble” in data set [4] (water).
As to `CCC(=O)C(CC(C)N(C)C)(c1ccccc1)c1ccccc1` (racemic) [racemic methadone, methadone], the “placebo-adjusted relief of average daily pain intensity” value in the data set with neuropathic pain [5] (10 mg of racemic methadone) was −3.20; with neuropathic pain [5] (20 mg of racemic methadone), −6.56. Moreover, the “analgesic effect in neuropathic pain” value in the data set on neuropathic pain [5] (Morley et al. 2003) is “analgesic effect”. Further, the patient withdrawal rate in [6] is 37%.
Take `CCC(=O)C(C[C@H](C)N(C)C)(c1ccccc1)c1ccccc1` [D-methadone, (S)-(+)-methadone]: the antinociception entry with neuropathic pain model is on record as “produced antinociception”. Moreover, in the data set on neuropathic pain [7], the “potency in neuropathic pain” value is “inactive”. Also, the analgesic response result in the data set on neuropathic pain [8] is given as “no analgesic response”.
For the molecule `CCC(=O)C(C[C@@H](C)N(C)C)(c1ccccc1)c1ccccc1` [L-methadone, (R)-(−)-methadone], the “potency in neuropathic pain” value with neuropathic pain [7] was “greater potency than other opioids”.
